Assay in all cases: SelectScreen Z'LYTE kinase profiling
Common to all, as to assay type: biochemical
Holding throughout (conditions): ATP at apparent KM

Assay [1] deals with T1, PDK1 Direct (Homo sapiens, UniProt O15530).
T1 sequence (O15530 1-556): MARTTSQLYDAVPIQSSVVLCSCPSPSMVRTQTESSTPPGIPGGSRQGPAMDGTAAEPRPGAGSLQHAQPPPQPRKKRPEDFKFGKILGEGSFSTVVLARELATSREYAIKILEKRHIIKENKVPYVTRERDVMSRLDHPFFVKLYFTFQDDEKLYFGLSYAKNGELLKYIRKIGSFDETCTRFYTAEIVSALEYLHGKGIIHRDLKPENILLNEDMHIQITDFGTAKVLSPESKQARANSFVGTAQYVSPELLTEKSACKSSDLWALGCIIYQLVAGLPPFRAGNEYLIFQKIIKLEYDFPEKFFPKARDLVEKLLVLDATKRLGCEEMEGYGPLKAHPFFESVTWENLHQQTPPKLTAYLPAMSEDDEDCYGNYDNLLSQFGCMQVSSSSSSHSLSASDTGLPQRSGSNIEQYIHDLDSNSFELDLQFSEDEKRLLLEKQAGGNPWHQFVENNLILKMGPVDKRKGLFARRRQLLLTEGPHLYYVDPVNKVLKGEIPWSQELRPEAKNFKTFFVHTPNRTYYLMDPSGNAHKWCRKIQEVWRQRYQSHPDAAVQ
Method: (§1) protein kinases at a compound concentration of 1 µM. Measurements were performed in duplicates
(§2) and at the particular apparent ATP KM of each individual kinase employing the activity based Z’LYTE®
(§3) kinase assay of the SelectScreen® Kinase Profiling Services (ThermoFisher Scientific).
(§4) kinases at a compound concentration of 1 µM. Measurements were performed in duplicates and at
(§5) the particular apparent ATP KM of each individual kinase employing the activity based Z’LYTE® kinase
(§6) assay of the SelectScreen® Kinase Profiling Services (ThermoFisher Scientific).

The target in assay [2] is T2, PRKG1 (Homo sapiens, UniProt Q13976).
T2 sequence (Q13976 1-671): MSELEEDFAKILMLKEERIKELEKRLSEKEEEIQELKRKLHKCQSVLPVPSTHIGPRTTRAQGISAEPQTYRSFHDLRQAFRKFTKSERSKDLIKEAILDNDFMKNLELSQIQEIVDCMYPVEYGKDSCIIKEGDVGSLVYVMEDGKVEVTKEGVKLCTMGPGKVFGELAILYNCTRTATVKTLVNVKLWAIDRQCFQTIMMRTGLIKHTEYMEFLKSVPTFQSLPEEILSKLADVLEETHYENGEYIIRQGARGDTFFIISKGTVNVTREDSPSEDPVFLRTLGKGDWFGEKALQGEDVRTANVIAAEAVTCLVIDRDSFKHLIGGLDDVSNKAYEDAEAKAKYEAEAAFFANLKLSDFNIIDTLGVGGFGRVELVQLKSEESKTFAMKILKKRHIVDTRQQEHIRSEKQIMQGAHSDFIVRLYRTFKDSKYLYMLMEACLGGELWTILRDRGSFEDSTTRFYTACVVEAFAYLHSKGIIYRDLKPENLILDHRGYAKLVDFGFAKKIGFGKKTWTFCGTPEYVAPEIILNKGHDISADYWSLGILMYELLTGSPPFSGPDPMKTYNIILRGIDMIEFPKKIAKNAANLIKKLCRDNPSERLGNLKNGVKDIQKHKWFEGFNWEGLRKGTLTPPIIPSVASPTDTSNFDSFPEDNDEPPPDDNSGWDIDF

The target in assay [3] is T3, BRSK1 (SAD1) (Homo sapiens, UniProt Q8TDC3).
T3 sequence (Q8TDC3 1-778): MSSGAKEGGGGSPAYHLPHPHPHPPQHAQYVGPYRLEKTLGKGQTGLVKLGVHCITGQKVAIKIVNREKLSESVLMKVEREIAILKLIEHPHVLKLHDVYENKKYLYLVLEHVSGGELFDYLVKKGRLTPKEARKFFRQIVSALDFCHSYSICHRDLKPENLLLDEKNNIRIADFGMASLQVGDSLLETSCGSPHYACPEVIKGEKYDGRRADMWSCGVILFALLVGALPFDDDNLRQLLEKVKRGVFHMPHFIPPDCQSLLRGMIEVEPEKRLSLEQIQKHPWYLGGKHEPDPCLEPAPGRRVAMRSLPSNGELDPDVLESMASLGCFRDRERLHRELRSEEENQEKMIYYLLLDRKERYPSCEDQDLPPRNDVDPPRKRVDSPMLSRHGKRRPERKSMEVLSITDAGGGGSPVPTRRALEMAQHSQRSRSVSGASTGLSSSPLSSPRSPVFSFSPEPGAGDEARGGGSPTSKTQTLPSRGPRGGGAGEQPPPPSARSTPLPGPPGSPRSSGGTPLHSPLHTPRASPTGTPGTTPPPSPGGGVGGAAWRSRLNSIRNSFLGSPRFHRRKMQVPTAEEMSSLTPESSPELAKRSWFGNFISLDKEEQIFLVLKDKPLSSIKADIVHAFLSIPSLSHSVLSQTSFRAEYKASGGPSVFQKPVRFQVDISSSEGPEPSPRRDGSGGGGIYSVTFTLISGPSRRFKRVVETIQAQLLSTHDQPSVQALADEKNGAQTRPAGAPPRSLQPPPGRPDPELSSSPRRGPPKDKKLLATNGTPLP
Method: as §1, §2, §3, §4, §5, §6

The target in assay [4] is T4, PRKG2 (PKG2) (Homo sapiens, UniProt Q13237).
T4 sequence (Q13237 1-762): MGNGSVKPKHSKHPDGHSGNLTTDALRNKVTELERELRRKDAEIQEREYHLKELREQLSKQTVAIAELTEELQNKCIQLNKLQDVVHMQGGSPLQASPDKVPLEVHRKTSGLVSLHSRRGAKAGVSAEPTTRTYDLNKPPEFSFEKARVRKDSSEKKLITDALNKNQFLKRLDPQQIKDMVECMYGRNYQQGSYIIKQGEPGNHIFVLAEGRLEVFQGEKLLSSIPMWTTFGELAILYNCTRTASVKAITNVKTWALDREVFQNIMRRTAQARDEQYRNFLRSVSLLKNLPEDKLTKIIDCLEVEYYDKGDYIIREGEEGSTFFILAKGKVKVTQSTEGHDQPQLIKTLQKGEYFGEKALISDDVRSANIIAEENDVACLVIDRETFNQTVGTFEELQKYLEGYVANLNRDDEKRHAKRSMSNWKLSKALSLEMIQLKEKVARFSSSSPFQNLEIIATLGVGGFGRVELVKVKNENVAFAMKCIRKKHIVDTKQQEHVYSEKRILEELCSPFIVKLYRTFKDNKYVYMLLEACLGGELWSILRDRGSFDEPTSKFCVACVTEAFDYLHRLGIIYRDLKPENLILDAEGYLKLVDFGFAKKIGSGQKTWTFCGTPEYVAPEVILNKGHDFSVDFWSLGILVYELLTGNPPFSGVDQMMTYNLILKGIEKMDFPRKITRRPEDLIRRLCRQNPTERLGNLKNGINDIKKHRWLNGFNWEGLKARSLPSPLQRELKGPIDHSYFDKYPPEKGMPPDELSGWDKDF
Method: as §1, §2, §3, §4, §5, §6

Consider `C=CC(=O)Nc1ccc2c(c1)n(C1CCN(Cc3ccc(-c4nc5cc[nH]c(=O)c5cc4-c4ccccc4)cc3)CC1)c(=O)n2C` [24b], for which the inhibition at 1 µM is 8% in assay [1], 6% in assay [2], 2% in assay [3] and -4% in assay [4].
For `C=CC(=O)Nc1cccc(C(=O)NC2CCN(Cc3ccc(-c4nc5cc[nH]c(=O)c5cc4-c4ccccc4)cc3)CC2)c1` [30b] the same measures were 1%, 10%, 7% and 5%.
Take `C=CC(=O)Nc1cc(NC(=O)NC2CCN(Cc3ccc(-c4nc5cc[nH]c(=O)c5cc4-c4ccccc4)cc3)CC2)ccc1Cl` [compound 27]: the inhibition at 1 µM is 3% in assay [1], 11% in assay [2], 16% in assay [3] and -4% in assay [4].

Usually inhibition stands for the drop in the measured response relative to a control, in per cent.

Values taken from publication PMC6430017, “Structural and chemical insights into the covalent-allosteric inhibition of the protein kinase Akt” (Chemical Science, 2019).
